4 molecules from ChEMBL document CHEMBL2331257, “(M)- and (P)-bicelaphanol A, dimeric trinorditerpenes with promising neuroprotective activity from Celastrus orbiculatus” (2013) can be followed below.

Assay type in all cases: functional
In experiment [1] the test system is PC-12. Briefly: Neuroprotective activity against H2O2-induced toxicity in rat PC12 cells assessed as cell viability at 1 uM incubated for 2 hrs prior to H2O2-challenge measured after 24 hrs by MTT assay relative to control. Particulars: for viability at 1 µM: Rattus norvegicus, PC-12, read-out: Activity.
Experiment [2] has as its system PC-12. Briefly: Neuroprotective activity against H2O2-induced toxicity in rat PC12 cells assessed as cell viability at 10 uM incubated for 2 hrs prior to H2O2-challenge measured after 24 hrs by MTT assay relative to control. To be noted: for viability at 10 µM: Rattus norvegicus, PC-12, read-out: Activity.
Experiment [3] deals with PC-12. Kind of experiment: Neuroprotective activity against H2O2-induced toxicity in rat PC12 cells assessed as cell viability at 100 uM incubated for 2 hrs prior to H2O2-challenge measured after 24 hrs by MTT assay relative to control. To be noted: read-out: Activity.

With `CC1(C)CCC[C@@]2(C)C1=C(O)C(=O)c1c2cc(O)c(O)c1C1=C2C=C(O)C(=O)C=C2[C@@]2(C)CCCC(C)(C)[C@@H]2C1=O` (stereo in doubt; 1), the Activity in the experiment with PC-12 [1] was 81.3%; with PC-12 [2], 102.7%.
Consider `CC1(C)CCC[C@@]2(C)C1=C(O)C(=O)c1c2cc(O)c(O)c1C1=C2C=C(O)C(=O)C=C2[C@@]2(C)CCCC(C)(C)[C@@H]2C1=O` (stereo in doubt; 2), for which the viability at 1 µM in the experiment with PC-12 [1] is 78.3%. In addition, the viability at 10 µM in the experiment with PC-12 [2] worked out at 91.6%.
For `CC(=O)N[C@@H](CS)C(=O)O` [ACETYLCYSTEINE], the viability at 100 µM in the experiment on PC-12 [3] was 76.1%.
Regarding `CC1(C)CCC[C@@]2(C)C1=C(O)C(=O)c1cc(O)c(O)cc12` [CELAPHANOL A], the viability at 1 µM with PC-12 [1] was 66.4%. Moreover, the viability at 10 µM with PC-12 [2] is 76.9%.
